Reference: article PMC5366949, “The toxicity of angiotensin converting enzyme inhibitors to larvae of the disease vectors Aedes aegypti and Anopheles gambiae” (Scientific Reports, 2017)
Where two headings read alike, the source gives them in different places.

Tests used:
[1] = system: T1, An. gambiae larval ACE (soluble peptidyl dipeptidase activity; one or both of AnoACE2 and AnoACE3); assay: fluorogenic peptidase assay, larval high-speed supernatant; assay type: biochemical; conditions: substrate Abz-Phe-Arg-Lys(Dnp)-Pro-OH about 25 uM, pH 7.5, 50 mM NaCl, 10 uM ZnCl2, 20 C, 10 min pre-incubation, read-out: Anopheles gambiae / IC50
T1 construct: native; 55,000 g supernatant of whole 3rd instar larval homogenate, not purified; AnoACE2 and/or AnoACE3 inferred by the authors from soluble activity and larval expression
Description: fluorogenic peptidase assay, larval high-speed supernatant on An. gambiae larval ACE (soluble peptidyl dipeptidase activity; one or both of AnoACE2 and AnoACE3)

[2] = system: T2, Ae. aegypti larval ACE (soluble peptidyl dipeptidase activity); assay: as above; assay type: biochemical; conditions: substrate Abz-Phe-Arg-Lys(Dnp)-Pro-OH about 25 uM, pH 7.5, 50 mM NaCl, 10 uM ZnCl2, 20 C, 10 min pre-incubation, read-out: Aedes aegypti / IC50
T2 construct: native; 55,000 g supernatant of whole 3rd instar larval homogenate, not purified; gene(s) not identified for this species
Description: fluorogenic peptidase assay, larval high-speed supernatant on Ae. aegypti larval ACE (soluble peptidyl dipeptidase activity)

C[C@H](CS)C(=O)N1CCC[C@H]1C(=O)O [captopril] gave an IC50 [1] of 0.0167 µM and an IC50 [2] of 0.00247 µM.
Molecule CCC(=O)O[C@@H](O[P@](=O)(CCCCc1ccccc1)CC(=O)N1C[C@H](C2CCCCC2)C[C@H]1C(=O)O)C(C)C [fosinopril] has an IC50 ([1]; pro-drug ester of fosinoprilat) of 0.326 µM and an IC50 ([2]; pro-drug ester of fosinoprilat) of 0.373 µM.
O=C(O)[C@@H]1C[C@@H](C2CCCCC2)CN1C(=O)CP(=O)(O)CCCCc1ccccc1 [fosinoprilat] gave an IC50 [1] of 0.0352 µM and an IC50 [2] of 0.00661 µM.
